Here are results for five compounds from ChEMBL document CHEMBL1148532, “Role of Tyr(356(7.43)) and Ser(190(4.57)) in antagonist binding in the rat beta1-adrenergic receptor” (J Med Chem, 2006).

The target in test [1] is Beta-1 adrenergic receptor (Rattus norvegicus, UniProt P18090).
Description: Antagonist activity at rat wild type beta-1 adrenergic receptor expressed in CHO cells
Test [2] concerns the target Beta-1 adrenergic receptor (Rattus norvegicus, UniProt P18090, Y356F).
Test [3] addresses Beta-1 adrenergic receptor (Rattus norvegicus, UniProt P18090, Y356A).
Test [4] concerns the target Beta-1 adrenergic receptor (Rattus norvegicus, UniProt P18090, W134A).
The target of test [5] is Beta-1 adrenergic receptor (Rattus norvegicus, UniProt P18090, S190A).
Beta-1 adrenergic receptor (Rattus norvegicus, UniProt P18090, S190A), sequence (P18090 whole entry S190A): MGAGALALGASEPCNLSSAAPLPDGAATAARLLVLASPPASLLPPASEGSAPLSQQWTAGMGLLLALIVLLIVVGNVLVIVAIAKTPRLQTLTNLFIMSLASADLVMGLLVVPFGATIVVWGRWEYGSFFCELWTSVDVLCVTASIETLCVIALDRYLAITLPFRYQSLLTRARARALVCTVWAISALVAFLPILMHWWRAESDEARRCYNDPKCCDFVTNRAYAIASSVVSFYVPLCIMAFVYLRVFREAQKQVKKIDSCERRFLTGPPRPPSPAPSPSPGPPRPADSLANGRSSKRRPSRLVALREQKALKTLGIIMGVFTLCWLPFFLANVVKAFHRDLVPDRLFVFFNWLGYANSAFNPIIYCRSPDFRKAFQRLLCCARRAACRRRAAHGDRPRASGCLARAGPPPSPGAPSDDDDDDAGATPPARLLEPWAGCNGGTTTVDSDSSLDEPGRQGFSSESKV

Beta-1 adrenergic receptor (Rattus norvegicus, UniProt P18090), sequence (P18090 whole entry): as the sequence (P18090 whole entry S190A) above, with A190S counted along it
Beta-1 adrenergic receptor (Rattus norvegicus, UniProt P18090, Y356A), sequence (P18090 whole entry Y356A): as the sequence (P18090 whole entry S190A) above, with A190S, Y356A counted along it
Beta-1 adrenergic receptor (Rattus norvegicus, UniProt P18090, Y356F), sequence (P18090 whole entry Y356F): as the sequence (P18090 whole entry S190A) above, with A190S, Y356F counted along it
Beta-1 adrenergic receptor (Rattus norvegicus, UniProt P18090, W134A), sequence (P18090 whole entry W134A): as the sequence (P18090 whole entry S190A) above, with W134A, A190S counted along it

Usually Ki stands for a measure of affinity in units of concentration, obtained from inhibition or displacement. Higher therefore signals a looser hold on the target. In the case of `CC(C)(C)NCC(O)COc1cccc2[nH]c(C#N)cc12` (stereo not given) [CYANOPINDOLOL], the Ki is 0.0501 nM in test [1]; 0.0398 nM in test [2]; 316 nM in test [3]; 0.126 nM in test [4]; 0.316 nM in test [5].

Broadly, the Kd is the constant that tells how readily two partners part at equilibrium. A low value points to higher affinity. With `CC(C)(C)NCC(O)COc1cccc2[nH]c(C#N)c(I)c12` (stereo not given), the Kd is 0.0631 nM in test [1]; 0.0794 nM in test [2]; 0.316 nM in test [3]; 0.0631 nM in test [4]; 0.0631 nM in test [5].

On to `Cn1cc(C(F)(F)F)nc1-c1ccc(OCC(O)CNCCOc2ccc(O)c(C(N)=O)c2)cc1` (stereo not given) [CGP-20712A], for which the Ki in test [1] is 1.26 nM; in test [2] it was 2 nM; in test [3], 10000 nM; in test [4], 7.94 nM; in test [5], 794 nM.

As to `N#Cc1cc(OCCOCC2CC2)ccc1OCC(O)CNCCNC(=O)Nc1ccc(O)cc1` (stereo not given) [LK-204545], the Ki is 7.94 nM in test [1]; 79.4 nM in test [2]; 79400 nM in test [3]; 63.1 nM in test [4]; 100 nM in test [5].

Take `CCOCCOc1ccc(OC[C@@H](O)CNCCc2ccc(OC)c(OC)c2)cc1`: the Ki was 50.1 nM in test [1]; 100 nM in test [2]; 794 nM in test [3]; 79.4 nM in test [4]; 12600 nM in test [5].
